In patent US9018214B2, “Bicyclic heterocycle compounds and their uses in therapy” (Astex Therapeutics Limited, priority 2011, dated 2015) one finds inhibition, EC50 and IC50 data, which are given here for eight compounds.

The target of assay [1] is BIR3 domain of human XIAP (residues 252-350) (Homo sapiens (Human), UniProt P98170). Nature of the assay: XIAP in vitro competitive displacement binding assay (fluorescence polarization). Particulars: for inhibition at 0.04 µM: 1 h, read-out: IC50 or PI Xiap: PI; for IC50: read-out: IC50 or PI Xiap: IC50. (In fluorescence polarisation assays a small probe gives low polarisation when free and higher when bound to something large.)

For assay [2], the target named is BIR3 domain of human cIAP-1 (residues 267-363) (Homo sapiens (Human), UniProt Q13490). Nature of the assay: cIAP-1 in vitro competitive displacement binding assay (fluorescence polarization; Probe A AVPIK(5&6FAM)-amide or Probe B AbuRPFK(5&6FAM)-amide). Particulars: for inhibition at […]: 3 h, read-out: IC50 or PI cIAP1: PI.
The subject of assay [3] is EVSA-T (human breast carcinoma). Nature of the assay: Anti-proliferative activity, Alamar Blue assay, EVSA-T. Particulars: Homo sapiens, EVSA-T. In kind it is cell-based. A general note: The colour change of resazurin is a common sign of viable cells or microbes.
The mark [4] stands for this setting: 72 hours, Alamar Blue, read-out: EVSA-T prolif (EC50).
Where [5] appears, read: Probe B AbuRPFK(5&6FAM)-amide, read-out: IC50 or PI cIAP1: IC50.

Counter-ions that a name gives are not always drawn. Like-named read-outs stand apart in the source and are kept apart here.

As to `C[C@@H]1CN(CC(=O)N2CC(C)(C)c3cnc(C(F)(F)c4ccccc4)cc32)[C@@H](CN2CCCC2=O)CN1` [Example 173, 1-{[(2R,5R)-1-(2-{6-[Difluoro(phenyl)methyl]-3,3-dimethyl-1H,2H,3H-pyrrolo[3,2-c]pyridin-1-yl}-2-oxoethyl)-5-methylpiperazin-2-yl]methyl}pyrrolidin-2-one dihydrochloride], in assay [1], the inhibition at 0.04 µM stood at 73%. Moreover, in assay [2], the inhibition at […] is 80%. Besides, the EC50 in assay [3] (setting [4]) turned out to be 36 nM.

Consider `C[C@@H]1CN(CC(=O)N2CC(C)(C)c3cnc(C(F)(F)c4ccccc4)cc32)[C@@H](CN2CCOCC2)CN1` [Example 224, 1-{6-[Difluoro(phenyl)methyl]-3,3-dimethyl-1H,2H,3H-pyrrolo[3,2-c]pyridin-1-yl}-2-[(2R,5R)-5-methyl-2-(morpholin-4-ylmethyl)piperazin-1-yl]ethan-1-one dihydrochloride], for which the inhibition at 0.04 µM in assay [1] turned out to be 77%. Also, the inhibition at […] in assay [2] was determined as 83%. Moreover, the EC50 in assay [3] (setting [4]) was determined as 19 nM.

In the case of `C[C@@H]1CN(CC(=O)N2CC3(Cc4ccccc4C3)c3ccc(C#N)cc32)[C@@H](C(=O)N2CCOCC2)CN1` [Example 109, 1′-{2-[(2R,5R)-5-Methyl-2-[(morpholin-4-yl)carbonyl]piperazin-1-yl]acetyl}-1,1′,2′,3-tetrahydro-spiro[indene-2,3′-indole]-6′-carbonitrile, hydrochloride salt], the IC50 in assay [1] turned out to be 63 nM; in assay [2] (setting [5]), 150 nM. The EC50 in assay [3] (setting [4]) came out at 4800 nM.

Take `COC[C@H]1CN[C@H](C)CN1CC(=O)N1CC(C)(c2cccnc2)c2ccc(Cc3ccccc3)cc21` (stereo partly drawn) [Example 163, 1-[6-Benzyl-3-methyl-3-(pyridin-3-yl)-2,3-dihydro-1H-indol-1-yl]-2-[(2R,5R)-2-(methoxymethyl)-5-methylpiperazin-1-yl]ethan-1-one hydrochloride]: the IC50 in assay [1] was 160 nM; in assay [2], < 1000 nM; in assay [2] (setting [5]), 13 nM. In addition, in assay [3] (setting [4]), the 50% effective concentration (EC50) stood at 450 nM.

On to `COC[C@H]1CN[C@H](C)CN1CC(=O)N1CC(C)(C)c2ccc(S(=O)(=O)N(C)C)cc21` [Example 68, 1-[2-((2R,5R)-2-Methoxymethyl-5-methyl-piperazin-1-yl)-acetyl]-3,3-dimethyl-2,3-dihydro-1H-indole-6-sulfonic acid dimethylamide dihydrochloride salt], for which the results for the IC50 in assay [1] and in assay [2] (read-out: IC50 or PI cIAP1: IC50) were 230 nM and 1200 nM, respectively. Moreover, the EC50 in assay [3] (72 h, read-out: EC50, inhibition of cell growth) was < 10000 nM; in assay [3] (72 h, read-out: EVSA-T prolif (EC50)), 6400 nM.

Take `C[C@@H]1CN(CC(=O)N2CC(C)(C)c3cnc(Oc4ccccc4Cl)cc32)[C@@H](Cn2cc(F)cn2)CN1` [Example 177, 1-[6-(2-Chlorophenoxy)-3,3-dimethyl-1H,2H,3H-pyrrolo[3,2-c]pyridin-1-yl]-2-[(2R,5R)-2-[(4-fluoro-1H-pyrazol-1-yl)methyl]-5-methylpiperazin-1-yl]ethan-1-one hydrochloride]: the IC50 is 49 nM in assay [1], < 1000 nM in assay [2] and 18 nM in assay [2] (setting [5]). In addition, in assay [3] (setting [4]), the 50% effective concentration (EC50) amounted to 270 nM.

In the case of `C[C@@H]1CN(CC(=O)N2CC(C)(C)c3ncc(Cc4ccccc4F)cc32)[C@@H](CN2CCCC2=O)CN1` [Example 249, 1-{[(2R,5R)-1-(2-{6-[(2-Fluorophenyl)methyl]-3,3-dimethyl-1H,2H,3H-pyrrolo[3,2-b]pyridin-1-yl}-2-oxoethyl)-5-methylpiperazin-2-yl]methyl}pyrrolidin-2-one hydrochloride], in assay [1] (@ 0.04 μM), the inhibition at 0.04 µM came to 56%. Moreover, in assay [2] (Probe B, @ 0.012 μM), the inhibition at […] was found to be 90%. The EC50 in assay [3] (setting [4]) was found to be 10 nM.

For the compound `C[C@@H]1CN(CC(=O)N2CC(C)(C)c3cnc(Cc4ccc(F)cc4F)cc32)[C@@H](CN2CCOCC2=O)CN1` [Example 191, 4-{[(2R,5R)-1-(2-{6-[(2,4-Difluorophenyl)methyl]-3,3-dimethyl-1H,2H,3H-pyrrolo[3,2-c]pyridin-1-yl}-2-oxoethyl)-5-methylpiperazin-2-yl]methyl}morpholin-3-one hydrochloride], in assay [1], the half-maximal inhibitory concentration (IC50) was 47 nM. Further, the inhibition at […] in assay [2] (Probe B, @ 0.012 μM) was 94%. Moreover, the half-maximal effective concentration (EC50) in assay [3] (setting [4]) was determined as 17 nM.

The term EC50 denotes the concentration at which the effect is half-maximal. By IC50 is commonly meant the concentration needed to halve the response being measured.
